Experimental data: ChEMBL document CHEMBL1201862, “PubChem BioAssay data set” (2004)
Where a name gives a salt, the structure may show the parent alone.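 Compound exposure: 48 hours, 5 concentrations, 96-well plates. Abbreviation: GI50, concentration required for 50% inhibition of growth.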 Active and inactive are the calls of the source. Rule as the data show it: active = GI50 up to about 1.1 µM and inactive = higher.

Columns and labels:
Assay in all cases: NCI tumour cell line growth inhibition, 48 h
A498 = system: A498
ACHN = system: ACHN
BT-549 = system: BT-549
CAKI-1 = system: CAKI-1
HL-60 = system: HL-60
Hs-578T = system: Hs-578T
M14 = system: M14
MCF7 = system: MCF7
Malme-3M = system: Malme-3M
NCI-H460 = system: NCI-H460
NCI-H522 = system: NCI-H522
OVCAR-4 = system: OVCAR-4
PC-3 = system: PC-3
RPMI-8226 = system: RPMI-8226
SK-MEL-2 = system: SK-MEL-2
SW-620 = system: SW-620
TK-10 = system: TK-10
UACC-62 = system: UACC-62
OVCAR-3 = system: OVCAR-3
SF-539 = system: SF-539

Structure (SMILES) | GI50 (A498) | GI50 (ACHN) | GI50 (BT-549) | GI50 (CAKI-1) | GI50 (HL-60) | GI50 (Hs-578T) | GI50 (M14) | GI50 (MCF7) | GI50 (Malme-3M) | GI50 (NCI-H460) | GI50 (NCI-H522) | GI50 (OVCAR-4) | GI50 (PC-3) | GI50 (RPMI-8226) | GI50 (SK-MEL-2) | GI50 (SW-620) | GI50 (TK-10) | GI50 (UACC-62) | GI50 (OVCAR-3) | GI50 (SF-539)
Cc1nnc(N)nc1C/C=C/C(C)Sc1ccc(Cl)cc1 (stereo unspecified) | 6.32 µM (inactive) | 7.46 µM (inactive) | 5.22 µM (inactive) | 7.94 µM (inactive) | 3.89 µM (inactive) | 7.14 µM (inactive) | 7.69 µM (inactive) | 5.28 µM (inactive) | 13.2 µM (inactive) | 7.55 µM (inactive) | 4 µM (inactive) | 10.1 µM (inactive) | 4.35 µM (inactive) | > 21.7 µM (inactive) | 12.8 µM (inactive) | 9.04 µM (inactive) | 15 µM (inactive) | 5.33 µM (inactive) | – | –
O=C(CSc1nnc(SCC(=O)NN=C2CCCCC2)s1)NN=C1CCCCC1 | > 100 µM (inactive) | > 100 µM (inactive) | > 100 µM (inactive) | > 100 µM (inactive) | – | – | > 100 µM (inactive) | > 100 µM (inactive) | > 100 µM (inactive) | > 100 µM (inactive) | > 100 µM (inactive) | > 100 µM (inactive) | > 100 µM (inactive) | > 100 µM (inactive) | – | > 100 µM (inactive) | > 100 µM (inactive) | > 100 µM (inactive) | > 100 µM (inactive) | > 100 µM (inactive)
Cc1c2cccc-2c(OCCOC(=O)n2ccnc2)cc2c1[nH]c1ccccc12 | 6.52 µM (inactive) | 2.56 µM (inactive) | 2.89 µM (inactive) | 3.66 µM (inactive) | 2.12 µM (inactive) | 3.55 µM (inactive) | 3.46 µM (inactive) | 3.24 µM (inactive) | 2.79 µM (inactive) | 3.9 µM (inactive) | 2.14 µM (inactive) | 2.32 µM (inactive) | 1.75 µM (inactive) | 3.48 µM (inactive) | 1.98 µM (inactive) | 3.08 µM (inactive) | 3.85 µM (inactive) | 2.62 µM (inactive) | 1.89 µM (inactive) | –
CC(C)=CC1C(COC(=O)c2ccccc2Cl)C1(C)C (stereo unspecified) | > 100 µM (inactive) | 42.8 µM (inactive) | 33.5 µM (inactive) | 41.6 µM (inactive) | 24.1 µM (inactive) | 19 µM (inactive) | 75 µM (inactive) | – | 23 µM (inactive) | 35.7 µM (inactive) | 20.4 µM (inactive) | 42.2 µM (inactive) | 41.3 µM (inactive) | – | 46.7 µM (inactive) | 51.3 µM (inactive) | > 100 µM (inactive) | > 100 µM (inactive) | 26.1 µM (inactive) | –
NNc1nncc2[nH]cnc12 | > 100 µM (inactive) | > 100 µM (inactive) | > 100 µM (inactive) | > 100 µM (inactive) | 35.8 µM (inactive) | > 100 µM (inactive) | > 100 µM (inactive) | > 100 µM (inactive) | – | > 100 µM (inactive) | – | – | > 100 µM (inactive) | > 100 µM (inactive) | > 100 µM (inactive) | > 100 µM (inactive) | > 100 µM (inactive) | > 100 µM (inactive) | > 100 µM (inactive) | > 100 µM (inactive)
CC(C)c1ccc(/C=C2\CSCC3=C2N=C(S)NC3c2ccc(C(C)C)cc2)cc1 (stereo unspecified) | – | > 100 µM (inactive) | > 100 µM (inactive) | > 100 µM (inactive) | 59.2 µM (inactive) | – | > 100 µM (inactive) | 88.3 µM (inactive) | 36.1 µM (inactive) | > 100 µM (inactive) | 53.6 µM (inactive) | > 100 µM (inactive) | 28.9 µM (inactive) | 67.6 µM (inactive) | > 100 µM (inactive) | > 100 µM (inactive) | > 100 µM (inactive) | 88.3 µM (inactive) | > 100 µM (inactive) | > 100 µM (inactive)
C=C(C)C1(Sc2ccc(OC)cc2)CC1 | 29.3 µM (inactive) | 33.6 µM (inactive) | 17.1 µM (inactive) | 30.5 µM (inactive) | 17 µM (inactive) | – | 35.1 µM (inactive) | 32.3 µM (inactive) | 17.8 µM (inactive) | 31 µM (inactive) | – | 34.9 µM (inactive) | 29.3 µM (inactive) | 9.29 µM (inactive) | 21.3 µM (inactive) | 17.4 µM (inactive) | 48.1 µM (inactive) | 51.9 µM (inactive) | 14.5 µM (inactive) | 23.2 µM (inactive)
C=C(C)[C@@]1(O)CCC[C@H]1NC(=O)OC(C)(C)C | > 100 µM (inactive) | > 100 µM (inactive) | > 100 µM (inactive) | > 100 µM (inactive) | – | – | > 100 µM (inactive) | > 100 µM (inactive) | > 100 µM (inactive) | > 100 µM (inactive) | > 100 µM (inactive) | > 100 µM (inactive) | > 100 µM (inactive) | – | > 100 µM (inactive) | > 100 µM (inactive) | > 100 µM (inactive) | – | > 100 µM (inactive) | –
COC(=O)[C@@](NC(=O)OCc1ccccc1)([C@H](C)O)C(F)(F)F | > 100 µM (inactive) | > 100 µM (inactive) | > 100 µM (inactive) | > 100 µM (inactive) | > 100 µM (inactive) | > 100 µM (inactive) | > 100 µM (inactive) | – | > 100 µM (inactive) | > 100 µM (inactive) | > 100 µM (inactive) | > 100 µM (inactive) | > 100 µM (inactive) | > 100 µM (inactive) | > 100 µM (inactive) | > 100 µM (inactive) | > 100 µM (inactive) | > 100 µM (inactive) | > 100 µM (inactive) | –
Cc1ccc(O)c(-c2cc(-c3ccccc3)nc(/N=C\c3ccccc3)n2)c1 | – | 13.1 µM (inactive) | 0.126 µM (active) | – | 35.2 µM (inactive) | 25.3 µM (inactive) | > 100 µM (inactive) | 2.6 µM (inactive) | > 100 µM (inactive) | 17.9 µM (inactive) | > 100 µM (inactive) | 31.4 µM (inactive) | > 100 µM (inactive) | – | 25.8 µM (inactive) | > 100 µM (inactive) | 97.1 µM (inactive) | 8.17 µM (inactive) | 23.7 µM (inactive) | 29.6 µM (inactive)
O=C1NC(=S)NC(=O)C1C(c1ccc(O)cc1)C1C(=O)NC(=S)NC1=O.c1ccncc1 | > 100 µM (inactive) | > 100 µM (inactive) | > 100 µM (inactive) | > 100 µM (inactive) | > 100 µM (inactive) | – | > 100 µM (inactive) | > 100 µM (inactive) | > 100 µM (inactive) | > 100 µM (inactive) | > 100 µM (inactive) | > 100 µM (inactive) | > 100 µM (inactive) | > 100 µM (inactive) | > 100 µM (inactive) | > 100 µM (inactive) | > 100 µM (inactive) | > 100 µM (inactive) | > 100 µM (inactive) | –
C/C(CC(O)(/C=N/O)c1ccccc1)=N/O (stereo unspecified) | – | > 100 µM (inactive) | > 100 µM (inactive) | > 100 µM (inactive) | – | > 100 µM (inactive) | > 100 µM (inactive) | > 100 µM (inactive) | > 100 µM (inactive) | > 100 µM (inactive) | > 100 µM (inactive) | > 100 µM (inactive) | > 100 µM (inactive) | > 100 µM (inactive) | > 100 µM (inactive) | > 100 µM (inactive) | > 100 µM (inactive) | – | > 100 µM (inactive) | > 100 µM (inactive)
Cc1ccc2ccccc2c1CC1S(=O)(=O)OCCOS1(=O)=O | – | 14.4 µM (inactive) | 11.2 µM (inactive) | 12.1 µM (inactive) | 2.12 µM (inactive) | – | 12.9 µM (inactive) | 7.69 µM (inactive) | 11.5 µM (inactive) | 9.57 µM (inactive) | – | 11.2 µM (inactive) | 11.2 µM (inactive) | 11.4 µM (inactive) | 16.7 µM (inactive) | – | 16.6 µM (inactive) | – | 6.89 µM (inactive) | –
O=c1c(Cl)cc2nc3ccccc3sc-2c1Cl | 33.9 µM (inactive) | 15.9 µM (inactive) | 11.7 µM (inactive) | 22.1 µM (inactive) | 10.6 µM (inactive) | 22 µM (inactive) | 11.7 µM (inactive) | 14.4 µM (inactive) | 10 µM (inactive) | 18 µM (inactive) | 12.4 µM (inactive) | 13.2 µM (inactive) | – | 4.25 µM (inactive) | 13.7 µM (inactive) | 12.5 µM (inactive) | 17.9 µM (inactive) | 11.5 µM (inactive) | 1.98 µM (inactive) | 16.7 µM (inactive)
CN1[C@@H]2CC[C@H]1C[C@@H](OC(c1ccccc1)c1ccccc1)C2 [BENZTROPINE MESYLATE] | 14 µM (inactive) | 19.7 µM (inactive) | 19.1 µM (inactive) | 23.6 µM (inactive) | 18.2 µM (inactive) | 13.1 µM (inactive) | 14.7 µM (inactive) | 13.9 µM (inactive) | 14.9 µM (inactive) | – | 14.9 µM (inactive) | 25.5 µM (inactive) | 16.6 µM (inactive) | 14.7 µM (inactive) | 17.1 µM (inactive) | 14.5 µM (inactive) | 17.3 µM (inactive) | 16.8 µM (inactive) | 15.9 µM (inactive) | –
CN(Cc1ccccc1)C(=S)S [SODIUM BENZYL(METHYL)CARBAMODITHIOATE] | > 100 µM (inactive) | 53.5 µM (inactive) | 77.4 µM (inactive) | 37.4 µM (inactive) | 26.4 µM (inactive) | 78.7 µM (inactive) | 23.3 µM (inactive) | 45.5 µM (inactive) | 38.7 µM (inactive) | 40.1 µM (inactive) | 27.8 µM (inactive) | 28.4 µM (inactive) | – | – | 55.7 µM (inactive) | 51.3 µM (inactive) | – | 40.8 µM (inactive) | 32 µM (inactive) | –
